Where two headings read alike, the source gives them in different places. Starred links: 1 amine or outer side, 2 acyl side, 3 side chain; linkers in the order of their positions; H or OH if unused. Positions of bridges follow the written chain, without caps; N, C: chain ends. Non-standard residues stand in square brackets, D forms with d. Residues, ends and D or L forms follow the SMILES beside them. *: point of attachment. Orn(4R-OH,5R-OCH2CH2NMe3+) = C[N+](C)(C)CCO[C@@H](N[*:3])[C@H](O)C[C@H](N[*:1])C(=O)[*:2]; pTerphenylCO(4''-OnC5H11) = CCCCCOc1ccc(-c2ccc(-c3ccc(C(=O)*)cc3)cc2)cc1; hTyr(3S-OH,4S-OH) = N[C@H](C(=O)O)[C@H](O)[C@@H](O)c1ccc(O)cc1; Pro(3S-OH,4S-Me) = C[C@H]1CN[C@H](C(=O)O)[C@H]1O; Hyp = O=C(O)[C@@H]1C[C@@H](O)CN1
Legend:
Candida albicans = experiment: Broth microdilution of invasive fungal isolates (CLSI M27-A3/M38-A2); format: cell-based
Candida glabrata = experiment: microbe, parasite or virus in culture; format: cell-based
Candida krusei = experiment: Broth microdilution of invasive fungal isolates (CLSI M27-A3/M38-A2); format: cell-based; conditions: 16 isolates
[1] = system: Cryptococcus neoformans var. grubii; experiment: as above; format: cell-based; conditions: 19 isolates
C. albicans NRRL Y-477 = experiment: Broth microdilution MIC (CLSI), Examples 3 and 4; conditions: Candida albicans
Protocol: Antifungal susceptibility testing. […] MIC assays were performed in triplicate.

[2] = system: C. glabrata ATCC 90030, ATCC 2001; experiment: Broth microdilution MIC (CLSI), Examples 3 and 4; conditions: Nakaseomyces glabratus
Protocol: (§1) Antifungal susceptibility testing. Candida strains were cultured aerobically at 35° C. on SDA plates or in RPMI 1640 broth (pH 7.0). […] MIC assays were performed in triplicate.

C. krusei ATCC 6258 = experiment: Broth microdilution MIC (CLSI), Examples 3 and 4; conditions: Pichia kudriavzevii, ATCC6258, 24 h, read-out: Broth MIC
Protocol: as §1

## CCCCCOc1ccc(-c2ccc(-c3ccc(C(=O)N[C@H]4C[C@@H](O)[C@@H](OCC[N+](C)(C)C)NC(=O)[C@@H]5[C@@H](O)[C@@H](C)CN5C(=O)[C@H]([C@@H](C)O)NC(=O)[C@H]([C@H](O)[C@@H](O)c5ccc(O)cc5)NC(=O)[C@@H]5C[C@@H](O)CN5C(=O)[C@H]([C@@H](C)O)NC4=O)cc3)cc2)cc1 [Compound 1] ({pTerphenylCO(4''-OnC5H11)}-[Orn(4R-OH,5R-OCH2CH2NMe3+)]T[Hyp][hTyr(3S-OH,4S-OH)]T[Pro(3S-OH,4S-Me)]; lactam 1-C)
Candida albicans; 251 isolates
  Cumulative % of isolates inhibited at MIC 0.06 μg/mL: (96.8) %
  Cumulative % of isolates inhibited at MIC 0.12 μg/mL: (100.0) %
  Cumulative % of isolates inhibited at MIC ≤0.008 μg/mL: (6.8) %
  Number of isolates inhibited at MIC 0.015 μg/mL: 107
  Number of isolates inhibited at MIC 0.03 μg/mL: 91
  Number of isolates inhibited at MIC 0.06 μg/mL: 28
  Number of isolates inhibited at MIC 0.12 μg/mL: 8
  Number of isolates inhibited at MIC ≤0.008 μg/mL: 17
Candida albicans; Candida albicans, 251 isolates, read-out: MIC50
  MIC50: 0.03 µg/mL
Candida albicans; Candida albicans, 251 isolates, read-out: MIC90
  MIC90: 0.06 µg/mL
Candida albicans; all 251 isolates
  concentration at which all isolates were inhibited: ≤ 0.12 µg/mL
Candida glabrata
  Cumulative % of isolates inhibited at MIC 0.015 μg/mL: (3.0) %
  Cumulative % of isolates inhibited at MIC 0.03 μg/mL: (62.0) %
  Cumulative % of isolates inhibited at MIC 0.06 μg/mL: (91.0) %
  Cumulative % of isolates inhibited at MIC 0.25 μg/mL: (95.0) %
  Cumulative % of isolates inhibited at MIC 0.5 μg/mL: (95.0) %
  Cumulative % of isolates inhibited at MIC 1 μg/mL: (96.0) %
  Cumulative % of isolates inhibited at MIC 2 μg/mL: (99.0) %
  Cumulative % of isolates inhibited at MIC 4 μg/mL: (100.0) %
  Number of isolates inhibited at MIC 0.015 μg/mL: 3
  Number of isolates inhibited at MIC 0.03 μg/mL: 59
  Number of isolates inhibited at MIC 0.06 μg/mL: 29
  Number of isolates inhibited at MIC 0.12 μg/mL: 4
  Number of isolates inhibited at MIC 0.25 μg/mL: 0
  Number of isolates inhibited at MIC 0.5 μg/mL: 0
  Number of isolates inhibited at MIC 1 μg/mL: 1
  Number of isolates inhibited at MIC 2 μg/mL: 3
  Number of isolates inhibited at MIC 4 μg/mL: 1
Candida glabrata; Nakaseomyces glabratus, read-out: MIC50
  MIC50: 0.03 µg/mL
Candida glabrata; Nakaseomyces glabratus, read-out: MIC90
  MIC90: 0.06 µg/mL
Candida glabrata; Nakaseomyces glabratus, read-out: MIC results
  MIC: 2 to 4 µg/mL
Candida krusei
  Cumulative % of isolates inhibited at MIC 0.015 μg/mL: (18.8) %
  Cumulative % of isolates inhibited at MIC 0.03 μg/mL: (87.5) %
  Cumulative % of isolates inhibited at MIC 0.06 μg/mL: (100.0) %
  Number of isolates inhibited at MIC 0.015 μg/mL: 3
  Number of isolates inhibited at MIC 0.03 μg/mL: 11
  Number of isolates inhibited at MIC 0.06 μg/mL: 2
  concentration at which all isolates were inhibited: ≤ 0.06 µg/mL
Candida krusei; Pichia kudriavzevii, read-out: MIC50
  MIC50: 0.03 µg/mL
Candida krusei; Pichia kudriavzevii, read-out: MIC90
  MIC90: 0.06 µg/mL
[1]
  Cumulative % of isolates inhibited at MIC 8 μg/mL: (31.6) %
  Cumulative % of isolates inhibited at MIC >8 μg/mL: (100.0) %
  Number of isolates inhibited at MIC 8 μg/mL: 6
  Number of isolates inhibited at MIC >8 μg/mL: 13
[1]; Cryptococcus neoformans, read-out: MIC50
  MIC50: 8 µg/mL
[1]; Cryptococcus neoformans, read-out: MIC90
  MIC90: 8 µg/mL
C. albicans NRRL Y-477; NRRLY477
  MIC: 0.25 µg/mL
C. albicans NRRL Y-477; NRRLY477, 24 h, read-out: Broth MIC
  MIC: 0.03 µg/mL
[2]; ATCC2001|ATCC90030, 24 h, read-out: Broth MIC, ATCC 2001 wild-type, 24 h, ~50% inhibition
  MIC: 0.125 µg/mL
[2]; ATCC2001|ATCC90030, 24 h, read-out: Broth MIC, ATCC 90030 wild-type, 24 h, ~50% inhibition
  MIC: 0.06 µg/mL
[2]; ATCC2001|ATCC90030, ATCC 2001 spontaneous mutant, Fks2 HS1 D666N
  MIC: 0.5 µg/mL
[2]; ATCC2001|ATCC90030, ATCC 2001 spontaneous mutant, Fks2 HS1 D666Y
  MIC: 0.5 µg/mL
[2]; ATCC2001|ATCC90030, ATCC 2001 spontaneous mutant, Fks2 HS1 R665G
  MIC: 0.5 µg/mL
[2]; ATCC2001|ATCC90030, ATCC 2001 spontaneous mutant, Fks2 HS1 S663F
  MIC: 1 µg/mL
[2]; ATCC2001|ATCC90030, ATCC 2001 spontaneous mutant, Fks2 HS1 ΔF659
  MIC: 2 µg/mL
[2]; ATCC2001|ATCC90030, ATCC 2001 spontaneous mutant, Fks2 HS2 R1378S
  MIC: 0.25 µg/mL
[2]; ATCC2001|ATCC90030, ATCC 90030 spontaneous mutant, Fks2 HS1 D666H
  MIC: 0.25 µg/mL
[2]; ATCC2001|ATCC90030, ATCC 90030 spontaneous mutant, Fks2 HS1 ΔF659
  MIC: 2 µg/mL
C. krusei ATCC 6258
  MIC: 0.06 µg/mL

Reference: US20180256673A1, “METHODS FOR TREATING FUNGAL INFECTIONS” (priority 2015, published 2018)
